SMILES strings stand for the structures.

The test system of assay [1] is LAPC4 prostate cancer cells, which express the AKT1 E17K allele. In words: Antiproliferative effects in LAPC4 cells (CellTiter Glo, 72 h). The class given is cell-based. The settings on record: Homo sapiens, LAPC4, 72 h, read-out: LAPC4 proliferation IC50: GeoMean IC50. The procedure, abridged:
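IC50 values come from Hill-equation fitting of luminescence (cellular ATP) after 72 h compound exposure. Treated wells held 1,000 cells each, with compound delivered as DMSO dilutions. Culture medium was IMDM plus 12% FBS.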
A general note: ATP-based viability assays read luminescence as a measure of living cells.

In another assay the target is T1, AKT1 E17K (Homo sapiens, UniProt P31749, E17K).
T1 construct: expressed in transfected cells; host or cells: HEK293
Nature of the assay: Live cell target engagement by NanoBRET competitive probe displacement, AKT1 E17K. The settings on record: transfected HEK293 cells, 2 h at 37° C., read-out: AKT1 E17K IC50: GeoMean IC50. The class given is binding. (Bioluminescence resonance energy transfer reports proximity on the nanometre scale.)

The target in a further assay is T2, AKT1 WT (Homo sapiens, UniProt P31749).
T2 construct: expressed in transfected cells; host or cells: HEK293
In words: Live cell target engagement by NanoBRET competitive probe displacement, AKT1 WT. The class given is binding. The note with it: transfected HEK293 cells, 2 h at 37° C., read-out: AKT1 WT IC50: GeoMean IC50.

A further assay has as its target T3, AKT2 (Homo sapiens, UniProt P31751).
T3 construct: expressed in transfected cells; host or cells: HEK293
In words: Live cell target engagement by NanoBRET competitive probe displacement, AKT2. The class given is binding. The settings on record: transfected HEK293 cells, 2 h at 37° C., read-out: AKT2 IC50: GeoMean IC50.

T1 sequence (P31749 whole entry E17K): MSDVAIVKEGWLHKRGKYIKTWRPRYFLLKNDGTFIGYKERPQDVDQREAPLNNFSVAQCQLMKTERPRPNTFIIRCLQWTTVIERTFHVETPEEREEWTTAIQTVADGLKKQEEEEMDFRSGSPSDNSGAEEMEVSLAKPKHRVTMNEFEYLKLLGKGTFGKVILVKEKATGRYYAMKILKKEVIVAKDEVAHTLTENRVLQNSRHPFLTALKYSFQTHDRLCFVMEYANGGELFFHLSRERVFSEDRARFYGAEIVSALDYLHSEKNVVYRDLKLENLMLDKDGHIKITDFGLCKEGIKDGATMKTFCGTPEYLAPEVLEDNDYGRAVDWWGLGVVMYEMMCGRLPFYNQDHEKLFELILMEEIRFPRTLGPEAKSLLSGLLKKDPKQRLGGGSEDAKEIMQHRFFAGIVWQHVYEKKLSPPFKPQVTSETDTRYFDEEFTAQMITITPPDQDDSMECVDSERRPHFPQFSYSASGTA
T3 sequence (P31751 whole entry): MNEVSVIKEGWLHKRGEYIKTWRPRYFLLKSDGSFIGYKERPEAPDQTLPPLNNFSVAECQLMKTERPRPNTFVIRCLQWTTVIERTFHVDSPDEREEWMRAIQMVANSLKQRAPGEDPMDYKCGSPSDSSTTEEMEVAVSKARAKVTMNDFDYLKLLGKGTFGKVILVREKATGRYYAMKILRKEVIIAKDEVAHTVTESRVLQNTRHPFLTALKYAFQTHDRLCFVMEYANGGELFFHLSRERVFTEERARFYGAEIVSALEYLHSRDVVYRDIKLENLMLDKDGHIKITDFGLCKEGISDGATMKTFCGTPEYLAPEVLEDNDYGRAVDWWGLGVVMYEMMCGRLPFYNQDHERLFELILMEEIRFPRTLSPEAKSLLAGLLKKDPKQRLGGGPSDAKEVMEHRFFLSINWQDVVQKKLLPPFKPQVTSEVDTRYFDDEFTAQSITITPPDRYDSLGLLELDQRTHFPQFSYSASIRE
T2 sequence (P31749 whole entry): as the sequence (P31749 whole entry E17K) above, with K17E counted along it

Take `Nc1ncccc1-c1nc2ccc(-c3cc4n(n3)CCOC4)nc2n1-c1ccc2c(c1)CC[C@@H]2NC(=O)c1cc(C=O)c(O)cc1F` [Example 246, N-[(1S)-5-[2-(2-aminopyridin-3-yl)-5-{4H,6H,7H-pyrazolo[3,2-c][1,4]oxazin-2-yl}imidazo[4,5-b]pyridin-3-yl]-2,3-dihydro-1H-inden-1-yl]-2-fluoro-5-formyl-4-hydroxybenzamide]: the IC50 in assay [1] was in the range of 10 to 100 nM; on AKT1 E17K, 10 to 100 nM; at AKT1 WT, 10 to 100 nM; on AKT2, 100 to 2000 nM.
As to `Nc1ncccc1-c1nc2ccc(-c3cc4n(n3)CCC4)nc2n1-c1ccc2c(c1)CC[C@@H]2NC(=O)c1cc(C=O)c(O)cc1F` [Example 247, N-[(1S)-5-[2-(2-aminopyridin-3-yl)-5-{4H,5H,6H-pyrrolo[1,2-b]pyrazol-2-yl}imidazo[4,5-b]pyridin-3-yl]-2,3-dihydro-1H-inden-1-yl]-2-fluoro-5-formyl-4-hydroxybenzamide], the IC50 lay within 10 to 100 nM in assay [1], 10 to 100 nM at AKT1 E17K, 10 to 100 nM at AKT1 WT and 100 to 2000 nM at AKT2.
Regarding `Nc1ncccc1-c1nc2cc(F)c(-n3cccn3)nc2n1-c1ccc2c(c1)CC[C@@H]2NC(=O)c1ccc(O)c(C=O)c1` [Example 248, (S)—N-(5-(2-(2-aminopyridin-3-yl)-6-fluoro-5-(1H-pyrazol-1-yl)-3H-imidazo[4,5-b]pyridin-3-yl)-2,3-dihydro-1H-inden-1-yl)-3-formyl-4-hydroxybenzamide], the IC50 in assay [1] fell in the range of 100 to 2000 nM; on AKT1 E17K, 10 to 100 nM; at AKT1 WT it was 10 to 100 nM; at AKT2, 100 to 2000 nM.
As for `N#Cc1cc(O)c(C=O)cc1C(=O)N[C@H]1CCc2cc(-n3c(-c4cccnc4N)nc4ccc(-n5cccn5)nc43)ccc21` [Example 250, (S)—N-(5-(2-(2-aminopyridin-3-yl)-5-(1H-pyrazol-1-yl)-3H-imidazo[4,5-b]pyridin-3-yl)-2,3-dihydro-1H-inden-1-yl)-2-cyano-5-formyl-4-hydroxybenzamide], the IC50 (in assay [1]; on AKT1 E17K; at AKT1 WT; at AKT2) was ≥ 2000 nM in each case.
Regarding `Nc1ncccc1-c1nc2ccc(-n3cccn3)nc2n1-c1ccc2c(c1)C1CC1C2NC(=O)c1ccc(O)c(C=O)c1` (stereo not shown) [Example 252, N-(3-(2-(2-aminopyridin-3-yl)-5-(1H-pyrazol-1-yl)-3H-imidazo[4,5-b]pyridin-3-yl)-1,1a,6,6a-tetrahydrocyclopropa[a]inden-6-yl)-3-formyl-4-hydroxybenzamide], the IC50 is 100 to 2000 nM in assay [1], 100 to 2000 nM at AKT1 E17K, 100 to 2000 nM on AKT1 WT and ≥ 2000 nM on AKT2.
As to `Nc1ncccc1-c1nc2ccc(-n3cccn3)nc2n1-c1ccc2c(c1)CC[C@@H]2NC(=O)c1cc(C=O)c(O)c2ncoc12` [Example 253, N-[(1S)-5-[2-(2-aminopyridin-3-yl)-5-(pyrazol-1-yl)imidazo[4,5-b]pyridin-3-yl]-2,3-dihydro-1H-inden-1-yl]-5-formyl-4-hydroxy-1,3-benzoxazole-7-carboxamide], the IC50 (in assay [1]; at AKT1 E17K; at AKT1 WT; at AKT2) was 100 to 2000 nM in each case.
On to `Nc1ncccc1-c1nc2ccc(-n3cccn3)nc2n1-c1ccc2c(c1)CC[C@@H]2NC(=O)c1ccc(O)c(C=O)c1F` [Example 255, (S)—N-(5-(2-(2-aminopyridin-3-yl)-5-(1H-pyrazol-1-yl)-3H-imidazo[4,5-b]pyridin-3-yl)-2,3-dihydro-1H-inden-1-yl)-2-fluoro-3-formyl-4-hydroxybenzamide], for which the IC50 fell in the range of 100 to 2000 nM in assay [1], 10 to 100 nM on AKT1 E17K, 100 to 2000 nM at AKT1 WT and 100 to 2000 nM at AKT2.

These data come from US20260053834A1, “COVALENT MODIFIERS OF AKT1 AND USES THEREOF” (Terremoto Biosciences, Inc., priority 2023, published 2026).
